In patent publication US7230033B2, “Pest control compositions and methods for their use” (United States of America as represented by the Secretary of …, priority 2000, dated 2007):
Converted amounts (≈) assume the structure as drawn. Where two headings read alike, the source gives them in different places. Marks after values point to notes of the source that are not given here.

Experiments:
[1] = tested on: Ixodes scapularis nymphal ticks; assay: Tick repellency bioassay; format: in vivo
Excerpt: One-hundred (100) μl of test compound was pipetted onto a cotton-tipped applicator mounted to the bottom center of a 1 dram glass shell vial using non-toxic modeling clay. A total of 8 concentrations were screened with doses ranging from 0.04–5.0%. Applicators treated with acetone only served as controls. A line was drawn around the perimeter of the vial immediate to the base of the treated cotton portion of the applicator. The area above the line was designated the “repellent zone”. The vial was allowed to air-dry 1 h before a single tick was introduced. Vials were covered with a single piece of mesh and fitted with a hollowed-out plastic cap to cover the opening of the vial; this prevented the tick from escaping but allowed for air exchange. Vials were breathed upon by investigators at 1 min intervals and a hand was placed over the test vials to provide stimuli for ticks to pass into the repellent zone. […] If the tick crossed over and remained in the “repellent zone” for ≧5 sec, the tick was deemed non-repelled by the test compound. Each test was replicated 10 times using a new tick for each test. Repellent activity was determined at 1, 2, 3, and 4 h after treatment. Probit analysis was used to determine repellent efficacy (RD50 and RD95).

[2] = tested on: ticks, fleas, and mosquitoes; assay: Residual activity, general statements (Examples 9, 17); format: in vivo
Ixodes scapularis nymphs = assay: Residual activity, aged treated vials, ticks; format: in vivo
Description: (§1) Briefly, groups of 10 nymphal I. scapularis and X. cheopis fleas were used in all tests (more than a total of 5,240 nymphs and 4,860 fleas were exposed to the compounds). The inner surface of 2-dram friction cap vials were treated with the compound/acetone solution, or acetone only as a control, and left to air-dry overnight (see also, Panella et al., J. Med. Entomol., 42(3):352-358, 2005. Three to 4 holes were made in the plastic cap to allow for air exchange. Nymphal ticks and adult fleas were then placed directly into the vials using forceps. Vials containing ticks or fleas were placed in desiccators for 24 h at 21° C. and 90% RH. Morbidity and mortality was recorded at 1, 2, 4, 8, and 24 h after initial exposure.

[3] = tested on: Xenopsylla cheopis adults; assay: Residual activity, aged treated vials, fleas; format: in vivo
Description: as §1

Aedes aegypti adults = assay: Residual activity, aged treated bottles, mosquitoes; format: in vivo
Description: (§2) Adult mosquitoes were tested using the bottle bioassay method of Brogden and McAllister (J. Am. Mosq. Control Assoc., 14:159–64, 1998) with minor modifications. Natural product extracts were two-fold serially diluted for a total of 8 concentrations ranging from 0.002% to 0.25% in 1.5 ml of acetone. Individual dilutions were added to 250 ml Wheaton glass bottles and capped. Bottles were manipulated to evenly coat all inner surfaces. The caps were removed and bottles were allowed to air-dry overnight. Once bottles were completely dry, 10–50 (in some tests 25–50) adult mosquitoes were aspirated into the bottles. Mosquitoes were held in the bottles for 24 h at 23° C. and 85% RH. Morbidity and mortality were recorded at 15, 30, 45, and 60 min and 24 hour intervals. One bottle for each replicate was treated with acetone only and served as a control. The dose-mortality data was evaluated with probit analysis, using the LdP Line software, to determine LC50 and LC90 values.

X. cheopis adults = assay: Flea bioassay, treated 2-dram vials, probit analysis; format: in vivo, Xenopsylla cheopis; conditions: 24 h exposure; for Slope: probit
Description: Med. […] A control treated with acetone only was run with each series. Tick and flea susceptibility was evaluated using a modification of the disposable pipette method of Barnard et al. (J. Econ. Entomol., 74:466-69, 1981) and Maupin and […]. Med. […] The inner surface of 2-dram friction cap vials were treated with the compound/acetone solution, or acetone only as a control, and left to air-dry overnight (see also, […] et al., J. Med. […] Three to 4 holes were made in the plastic cap to allow for air exchange. Nymphal ticks and adult fleas were then placed directly into the vials using forceps. […] For each time point, if ticks and fleas were incapable of movement, maintaining normal posture, leg coordination, ability to right themselves, or any signs of life, they were considered moribund or dead.

Ae. aegypti adults = assay: Adult mosquito bottle bioassay; format: in vivo, Aedes aegypti; conditions: for Slope: probit
Description: as §2
Carvacrol was combined with compound 7, 9, or 10 at a 1:1 ratio (7.5 μl of carvacrol:7.5 μl of compound 7, 9, or 10 was added to 2,985 μl of acetone for a 0.5% solution, from which serial dilutions were made), and tested as previously described against nymphal ticks and adult and larval mosquitoes.

I. scapularis nymphs = assay: Tick bioassay, treated 2-dram vials, probit analysis; format: in vivo, Ixodes scapularis; conditions: for LC90 / Slope: 24 h exposure; for LC90: NE = not effective at concentrations tested; for Slope: probit
Excerpt: A control treated with acetone only was run with each series.
For each time point, if ticks and fleas were incapable of movement, maintaining normal posture, leg coordination, ability to right themselves, or any signs of life, they were considered moribund or dead.

[4] = tested on: fourth-instar Aedes aegypti larvae; assay: Larval mosquito bioassay; format: in vivo; conditions: Aedes aegypti larval mosquitoes, concentration of the 1 ml added to 150 ml water
Description: Individual groups of 10 fourth-instar Aedes aegypti larvae were contained in 150 ml of water and exposed to […] of essential oils prepared by 2-fold serial dilutions ranging from 0.06%–5.0% in 1 ml of acetone. A control group of larvae were exposed to 1 ml of acetone only.
It is important to note that larval mosquitoes are tested in their natural environment, i.e., in water. The particular assays used herein involved groups of 10 larval mosquitoes in 150 ml of water. The weight percentages reported for lethal concentration for larval mosquitoes are the weight percentages added to the 150 ml water (as opposed to the final percentage of the tested compound(s) in the 150 ml water). As one of skill in the art will appreciate, test compound(s) added to a volume of water (such as, 150 ml) can be dramatically diluted depending upon the water solubility of the tested compound. […] If the tested compound is an oil (such as, carvacrol, nootkatone, or 13-hydroxy-valencene), it most likely floats on the surface of the water.

[5] = 1 h after compound applied to applicator
[6] = 4 h after compound applied to applicator
[7] = 2 weeks after treatment, NE = not effective
[8] = 24 h exposure, NE = not effective at concentrations tested
[9] = Aedes aegypti adult mosquitoes, alone, or 1:1 with carvacrol (in parenthesis)
[10] = Ixodes scapularis nymphal ticks, alone, or 1:1 with carvacrol (in parenthesis)
[11] = Ixodes scapularis nymphal ticks, alone, or 1:1 with carvacrol (in parenthesis), listed as carvacrol

CCN(CC)C(=O)c1cccc(C)c1 [Deet, N, N-diethyl-m-toluamide, reference compound]
Slope (±SEM) ([1]; 1 h): 0.633 (±0.222)
RD50 [1, 5]: 0.167 % (wt:vol)
RD95 [1, 5]: 50.579 % (wt:vol)
Slope (±SEM) ([1]; 4 h): 0.485 (±0.212)
RD50 [1, 6]: 0.384 % (wt:vol)
RD95 [1, 6]: 950.294 % (wt:vol)

C=C(C)[C@@H]1CCC2=CC(=O)C[C@@H](C)[C@]2(C)C1 [Compound 8, Nootkatone]
residual activity ([2]; ticks): considerable biological activity through the four week time period
Slope, residual activity (Ixodes scapularis nymphs; 1 week after treatment): 2.871
Slope, residual activity (Ixodes scapularis nymphs; 2 weeks after treatment): 2.727
LC90, residual activity (Ixodes scapularis nymphs; [7]): 0.056 percent concentration, wt:vol
Slope, residual activity (Ixodes scapularis nymphs; 4 weeks after treatment): 2.871
Slope, residual activity ([3]; 1 week after treatment): 3.107
LC90, residual activity ([3]; 1 week after treatment, NE = not effective): 0.053 percent concentration, wt:vol
LC90, residual activity ([3]; 2 weeks after treatment): 0.081 percent concentration, wt:vol
Slope, residual activity ([3]; 2 weeks after treatment): 1.931
Slope, residual activity ([3]; 4 weeks after treatment): 1.95
Slope, residual activity (Aedes aegypti adults; 1 week after treatment): 3.858
Slope, residual activity (Aedes aegypti adults; 2 weeks after treatment): 4.953
LC90, residual activity (Aedes aegypti adults; [7]): 0.012 percent concentration, wt:vol
Slope, residual activity (Aedes aegypti adults; 4 weeks after treatment): 7.772
LC90 (X. cheopis adults; NE = not effective at concentrations tested): 0.008 percent concentration, wt:vol
Slope (X. cheopis adults): 2.949
LC90 (Ae. aegypti adults; [8]): 0.0087 percent concentration, wt:vol
Slope (Ae. aegypti adults; 24 h exposure): 4.635
LC50 (Ae. aegypti adults; Aedes aegypti, 24 h exposure, NE = not effective at concentrations tested, read-out: LC50): 46 µg/mL (≈ 211 µM)
LC90 (I. scapularis nymphs): 0.015 percent concentration, wt:vol
Slope (I. scapularis nymphs): 3.211

C[C@@H]1CC(=O)C2OC23CCC(C2(C)CO2)C[C@@]13C (some centres unmarked) [Compound 18, nootkatone-1,10–11,12-diepoxide]
Slope (X. cheopis adults): 1.455
Slope (Ae. aegypti adults; 24 h exposure): 4.472
Slope (I. scapularis nymphs): 2.131

Cc1ccc(C(C)C)cc1O [Compound 4, Carvacrol]
residual activity [2]: little-to-no activity beyond 24 h
residual activity (Ixodes scapularis nymphs; nymphal I. scapularis): lacks any residual activity beyond about 1 week
LC50 (1 h) [4]: 3.853^b % (wt:vol)
LC50 (24 h) [4]: 0.988 % (wt:vol)
LC90 (1 hr) [4]: 10.478 % (wt:vol)
LC90 (24 h) [4]: 1.411 % (wt:vol)
LC50 (1 h) ([4]; listed as carvacrol): 3.853 % (wt:vol)
LC50 (24 h) ([4]; listed as carvacrol): 1.411 % (wt:vol)
Slope (X. cheopis adults): 3.413
LC50 (Ae. aegypti adults; [8]): 0.0051 percent concentration, wt:vol
Slope (Ae. aegypti adults; 24 h exposure): 2.908
LC50 (15 min) (Ae. aegypti adults; [9]): 0.0057^b % (wt:vol)
LC50 (24 h) (Ae. aegypti adults; [9]): 0.0051 % (wt:vol)
LC90 (15 min) (Ae. aegypti adults; [9]): 0.017 % (wt:vol)
LC90 (24 h) (Ae. aegypti adults; [9]): 0.014 % (wt:vol)
LC50 (15 min) (Ae. aegypti adults; Aedes aegypti adult mosquitoes, alone, or 1:1 with carvacrol (in parenthesis), listed as carvacrol): 0.0057 % (wt:vol)
Slope (±SEM) ([1]; 1 h): 1.506 (±0.355)
RD50 [1, 5]: 0.088 % (wt:vol)
RD95 [1, 5]: 1.09 % (wt:vol)
Slope (±SEM) ([1]; 4 h): 2.907 (±0.755)
RD50 [1, 6]: 0.077 % (wt:vol)
RD95 [1, 6]: 0.283 % (wt:vol)
more effective than Deet ([1]; at 1 h): 1.9 fold
more effective than Deet ([1]; at 4 h): 46 fold
LC90 (I. scapularis nymphs): 0.014 percent concentration, wt:vol
Slope (I. scapularis nymphs): 3.906
LC50 (1 h) (I. scapularis nymphs; [10]): 0.019^b % (wt:vol)
LC50 (24 h) (I. scapularis nymphs; [10]): 0.0068 % (wt:vol)
LC90 (1 hr) (I. scapularis nymphs; [10]): 0.071 % (wt:vol)
LC90 (24 h) (I. scapularis nymphs; [10]): 0.014 % (wt:vol)
LC50 (1 h) (I. scapularis nymphs; [11]): 0.019 % (wt:vol)
LC50 (24 h) (I. scapularis nymphs; [11]): about 0.0068 % (wt:vol)
